Here are results for 34 molecules from patent publication US5374733A, “Sweetening agent derived from L-aspartic or L-glutamic acid” (priority 1989, dated 1994).

SMILES strings stand for the structures. Where two headings read alike, the source gives them in different places. Peptide text beside a SMILES is read from it.

The nature of data set [1]: Stability: accelerated ageing in aqueous solution at pH 3 and 70° C., remaining product by HPLC (half-life). The class given is physicochemical. Conditions: pH 3, 70° C. The protocol:
The stability of the compounds of the invention, in particular those containing the L-glutamyl residue, is very high and can in certain cases be about three hundred times greater than that of the compounds of the prior art.
The stability of the compounds of the prior art and those of the invention is measured using high performance liquid chromatography to determine the amount of product remaining after accelerated ageing in an acid medium (phosphate buffer at pH 3) and at high temperature (70° C.). Under these experimental conditions, measurement of the half-life (time corresponding to 50% degradation) makes it possible to evaluate the potential stability of the compounds tested in this way. A compound of low stability will have a very short half-life of only a few hours, whereas a very stable compound will have a half-life of several tens of days, as is the case, for example, of compounds (5) and (6) of the invention, which have a half-life of about 60 days (FIG. 1).

The conditions of data set [2]: cited from earlier work.
Data set [3] in a line: Sweetening potency: taste comparison by a team of eight experienced people with a sucrose reference solution. The note with it: weight basis. On the procedure:
The sweetening potency of the compounds described in the Examples was evaluated by a team of eight experienced people. This is done by comparing the taste of the compounds, in aqueous solution at variable concentrations, with a 2%, 5 % or 10 % reference solution of sucrose. The sweetening potency of the test compound compared with sucrose then corresponds to the weight ratio between the compound and sucrose for equal sweetening intensity, i.e. when the sweet tastes of the solution of the test compound and the reference solution of sucrose are considered, by a majority of people, to have the same sweetening intensity.
Summary Table 3 below gives, by way of examples, a list of a few compounds obtained by experimental protocols similar to those described above, which those skilled in the art will easily find, together with their relative sweetening potency (SP), evaluated on a weight basis, compared with a 2% aqueous solution of sucrose. When the groups R1, R2 and R3 are different, the configuration of the asymmetric carbon to which they are bonded (carbon marked with an asterisk) is designated according to the conventional rules of stereochemistry using the R/S system: R, S or, when both configurations coexist in the same compound, RS.

Where [4] appears, read: phosphate buffer, pH 3, accelerated ageing, read-out: half-life (converted).
The mark [5] stands for this setting: Table 2, EP-A-0.338.946, sucrose concentration not stated.
Setting [6] is: prior art and aspartame, sucrose concentration not given.
Setting [7] is: phosphate buffer, pH 3, accelerated ageing, prior art compounds, read-out: half-life (converted).

A word on the half-life: it is how long it takes for the measured level to halve.

For `CCCC[C@H](C)C(=O)N[C@@H](CCC(=O)O)C(=O)Nc1ccc(C#N)nc1` [(5)], the “stability (in words)” value in data set [1] (accelerated ageing) is “high stability”. Further, the half-life in data set [1] (setting [4]) is approximately 1440 h.

Turning to `CC(C)CCN[C@@H](CCC(=O)O)C(=O)Nc1ccc(C#N)cc1` [(CH3)2 CHCH2 CH2/2/4-CN--C6 H4], in data set [2] (setting [5]), the SP is 800. In the case of `N#Cc1ccc(NC(=O)[C@H](CCC(=O)O)NCCCc2ccccc2)cc1` [C6 H5 CH2 CH2 CH2/2/4-CN--C6 H4], the SP in data set [2] (setting [5]) is given as 800.

Consider `N#Cc1ccc(NC(=O)[C@H](CC(=O)O)NCCc2ccccc2)cc1` [C6 H5 CH2 CH2/1/4-CN--C6 H4], for which, in data set [2] (setting [5]), the SP is reported as 300. In the case of `N#Cc1ccc(NC(=O)[C@H](CCC(=O)O)NCCc2ccccc2)cc1` [C6 H5 CH2 CH2/2/4-CN--C6 H4], the SP in data set [2] (setting [5]) is reported as 300. Regarding `N#Cc1ccc(NC(=O)[C@H](CCC(=O)O)NCc2ccccc2)cc1` [C6 H5 CH2/2/4-CN--C6 H4], the SP in data set [2] (setting [5]) is on record as 20. As for `CC(CCN[C@@H](CCC(=O)O)C(=O)Nc1ccc(C#N)cc1)c1ccccc1` (stereo partly drawn) [C6 H5 CH(CH3)CH2 CH2/2/4-CN--C6 H4], the SP in data set [2] (setting [5]) is given as 400. `N#Cc1ccc(NC(=O)[C@H](CCC(=O)O)NCC=Cc2ccccc2)cc1` [C6 H5 CH=CHCH2/2/4-CN--C6 H4]: the SP in data set [2] (setting [5]) was 2000.

In the case of `CCCC(C)CN[C@@H](CCC(=O)O)C(=O)Nc1ccc(C#N)cc1` (stereo partly drawn) [CH3 (CH2)2 CH(CH3)CH2/2/4-CN--C6 H4], the SP in data set [2] (setting [5]) is listed as 5000.

Turning to `CCCC=CCN[C@@H](CCC(=O)O)C(=O)Nc1ccc(C#N)cc1` [CH3 (CH2)2 CH=CHCH2/2/4-CN--C6 H4], the SP in data set [2] (setting [5]) is 3000.

For `CCCCCN[C@@H](CC(=O)O)C(=O)Nc1ccc(C#N)cc1` [CH3 (CH2)3 CH2/1/4-CN--C6 H4], in data set [2] (setting [5]), the SP is on record as 300.

Consider `CCCCCN[C@@H](CCC(=O)O)C(=O)Nc1ccc(C#N)cc1` [CH3 (CH2)3 CH2/2/4-CN--C6 H4], for which, in data set [2] (setting [5]), the SP was 1500.

In the case of `CCCCCCN[C@@H](CC(=O)O)C(=O)Nc1ccc(C#N)cc1` [CH3 (CH2)4 CH2/1/4-CN--C6 H4], the SP in data set [2] (setting [5]) is recorded as 600. Consider `CCCCCCN[C@@H](CCC(=O)O)C(=O)Nc1ccc(C#N)cc1` [CH3 (CH2)4 CH2/2/4-CN--C6 H4], for which the SP in data set [2] (setting [5]) was 5000. As for `CCCCCCCN[C@@H](CC(=O)O)C(=O)Nc1ccc(C#N)cc1` [CH3 (CH2)5 CH2/1/4-CN--C6 H4], in data set [2] (setting [5]), the SP is recorded as 2000.

For `CCCCCCCN[C@@H](CCC(=O)O)C(=O)Nc1ccc(C#N)nc1` [CH3 (CH2)5 CH2/2/2-CN-pyrid-5-yl], the SP in data set [2] (setting [5]) is listed as 4000.

With `CCCCCCCN[C@@H](CCC(=O)O)C(=O)Nc1ccc(C#N)cc1` [CH3 (CH2)5 CH2/2/4-CN--C6 H4], the SP in data set [2] (setting [5]) was 7000. On to `CCCCCCCCN[C@@H](CC(=O)O)C(=O)Nc1ccc(C#N)cc1` [CH3 (CH2)6 CH2/1/4-CN--C6 H4], for which the SP in data set [2] (setting [5]) is reported as 400. On to `CCCCCCCCN[C@@H](CCC(=O)O)C(=O)Nc1ccc(C#N)cc1` [CH3 (CH2)6 CH2/2/4-CN--C6 H4], for which, in data set [2] (setting [5]), the SP is 2000. As to `CC=CC=CCN[C@@H](CCC(=O)O)C(=O)Nc1ccc(C#N)cc1` [CH3 CH=CHCH=CHCH2/2/4-CN--C6 H4], in data set [2] (setting [5]), the SP is listed as 2000. Consider `CCCC[C@H](C)C(=O)N[C@@H](CCC(=O)O)C(=O)Nc1ccc(C#N)nc1` [Example 1, N-[(S)-2-methylhexanoyl]-alpha-L-glutamyl-5-aminopyridine-2-carbonitrile], for which, in data set [1] (accelerated ageing), the half-life entry was “about 60 days” and the “stability (in words)” value is given as “excellent”. Consider `CCCCC(C)(C)C(=O)N[C@@H](CCC(=O)O)C(=O)Nc1ccc(C#N)nc1` [Example 2, N-(2,2-dimethylhexanoyl)-alpha-L-glutamyl-5-aminopyridine-2-carbonitrile], for which, in data set [1] (accelerated ageing), the “stability (in words)” value is given as “excellent”. The half-life in data set [1] (setting [4]) is approximately 1680 h. Regarding `C[C@@H](Oc1ccccc1)C(=O)N[C@@H](CCC(=O)O)C(=O)Nc1ccc(C#N)nc1` [Example 3, N-[(R)-2-phenoxypropanoyl]-alpha-L-glutamyl-5-aminopyridine-2-carbonitrile], the “stability (in words)” value in data set [1] (accelerated ageing) is reported as “very high”. In addition, in data set [1] (setting [4]), the half-life is approximately 1440 h. On to `CCCC[C@H](C)C(=O)N[C@@H](CCC(=O)O)C(=O)Nc1ccc(C#N)cc1` [Example 4, N-[(S)-2-methylhexanoyl]-alpha-L-glutamyl-4-aminophenylcarbonitrile], for which the “SP (relative sweetening potency)” value in data set [3] (Table 3, compared with a 2% aqueous solution of sucrose) turned out to be 9000. For the same molecule, in data set [3] (by comparison with a 2% solution of sucrose), the sweetening potency is ~9000 times that of sucrose. Further, the “stability (in words)” value in data set [1] (accelerated ageing) is “excellent”. In addition, in data set [1] (setting [4]), the half-life is more than 1440 h.

Turning to `O=C(O)C[C@H](NC(=O)C(Cl)(Cl)Cl)C(=O)Nc1cccnc1` [Y=H, X=CCl3 CO], the sweetening potency in data set [2] (setting [6]) is reported as 1 times that of sucrose. As to `O=C(O)C[C@H](NC(=O)C(F)(F)F)C(=O)Nc1cccnc1` [Y=H, X=CF3 CO], the sweetening potency in data set [2] (setting [6]) is given as 40 times that of sucrose.

With `COC(=O)[C@H](Cc1ccccc1)NC(=O)[C@@H](N)CC(=O)O` [aspartame, reference compound] (H-Asp-Phe-OMe), the sweetening potency in data set [2] (setting [6]) is reported as 180 times that of sucrose. Besides, in data set [1] (accelerated ageing), the “stability (in words)” value is reported as “relatively low stability”. Further, in data set [1] (setting [4]), the half-life was 24 h. With `N#Cc1ccc(NC(=O)[C@H](CCC(=O)O)NCCCC2CCCCC2)cc1` [c-C6 H11 CH2 CH2 CH2/2/4-CN--C6 H4], the SP in data set [2] (setting [5]) is listed as 7000. Turning to `N#Cc1ccc(NC(=O)[C@H](CC(=O)O)NCC2CCCCC2)cc1` [c-C6 H11 CH2/1/4-CN--C6 H4], the SP in data set [2] (setting [5]) is given as 200. Consider `CC(N[C@@H](CC(=O)O)C(=O)Nc1ccc(C#N)cc1)C1CCCCC1` (stereo partly drawn) [c-C6 H11 CH(CH3)/1/4-CN--C6 H4], for which, in data set [2] (setting [5]), the SP is 200.

`N#Cc1ccc(NC(=O)[C@H](CC(=O)O)NC(=O)C(F)(F)F)cc1` [compound (1)]: the sweetening potency in data set [2] (setting [6]) is reported as 3000 times that of sucrose; in data set [2] (prior art, by comparison with a 2% solution of sucrose), 3000 times that of sucrose. The half-life in data set [1] (setting [7]) was approximately 15 h. Take `N#Cc1ccc(NC(=O)[C@H](CC(=O)O)NC=O)cc1` [compound (2), reference compound]: the sweetening potency in data set [2] (setting [6]) is recorded as 40 times that of sucrose. The half-life in data set [1] (setting [7]) is approximately 20 h. Take `N#Cc1ccc(NC(=O)[C@H](CC(=O)O)NC(=O)c2ccccc2)cc1` [compound (3)]: in data set [2] (JP-A-87-252754, text, by comparison with a 5% solution of sucrose), the “sweetening potency (SP)” value is 720 times that of sucrose. The SP in data set [2] (Table 1, JP-A-87-252754, by comparison with a 5% solution of sucrose) is listed as 720 times that of sucrose. In addition, the sweetening potency in data set [2] (setting [6]) is 720 times that of sucrose. The half-life in data set [1] (setting [7]) was approximately 8 h. Consider `N#Cc1ccc(NC(=O)[C@H](CC(=O)O)NCc2ccccc2)cc1` [compound (4)], for which the SP in data set [2] (setting [5]) is given as 1000. Also, in data set [2] (setting [6]), the sweetening potency is listed as 1000 times that of sucrose. Besides, the half-life in data set [1] (setting [4]) is approximately 48 h.
